Reference: ChEMBL document CHEMBL1146649, “New highly active taxoids from 9 beta-dihydrobaccatin-9,10-acetals. Part 5” (2004)
Values after ≈ are worked out from the molar mass of the structure shown.

Legend:
PC-6 [1] = assay: Concentration required to inhibit human PC-6/VP1-1 cell line growth by 50% at 72 hr exposure; type: functional; details: PC-6, 72 h
P388 = assay: Concentration required to inhibit mouse P388 cell line growth by 50% at 72 hr continuous exposure; type: functional; details: P388, 72 h
Mus musculus [2] = assay: Effective dose of perorally administered compound against B16 melanoma BL6 cells implanted into mice; range is 11.9-17.8; type: functional; details: B16, po
Mus musculus [3] = assay: Number of mice died at 7.9 mg/kg of intravenous dose of compound among the total 6 mice tested; type: functional
Mus musculus [4] = assay: Number of mice died at 26.7 mg/kg of peroral dose of compound among the total 6 mice tested; type: functional; details: route oral
Mus musculus [5] = assay: Number of mice died at 11.9 mg/kg of intravenous dose, among the total 6 mice tested; type: functional
Mus musculus [6] = assay: Maximum rate of body weight loss after peroral administration of 11.9 mg/kg of compound in mice; <0 indicates no weight loss; type: functional; details: route oral
PC-12 = assay: Concentration required to inhibit human PC-12 cell line growth by 50% at 72 hr continuous exposure; type: functional; details: PC-12, 72 h
Mus musculus [7] = assay: Antitumor activity of 17.8 mg/kg of intravenously administered compound against B16 melanoma BL6 cells implanted into mice, value reported is percent compared to control; type: functional; details: route intravenous
Mus musculus [8] = assay: Maximum rate of body weight loss after intravenous administration of 17.8 mg/kg of compound in mice; type: functional
B16 [9] = assay: Antitumor activity of 11.9 mg/kg of intravenously administered compound against B16 melanoma BL6 cells implanted into mice, value reported is percent compared to control; type: functional, Mus musculus; details: route intravenous
Mus musculus [10] = assay: Number of mice died at 17.8 mg/kg of peroral dose among the total 6 mice tested; type: functional; details: route oral
Mus musculus [11] = assay: Antitumor activity of 26.7 mg/kg of perorally administered compound against B16 melanoma BL6 cells implanted into mice, value reported is percent compared to control; type: functional; details: route oral
Mus musculus [12] = assay: Antitumor activity of 7.9 mg/kg of perorally administered compound against B16 melanoma BL6 cells implanted into mice, value reported is percent compared to control; type: functional; details: route oral
Mus musculus [13] = assay: Maximum rate of body weight loss after peroral administration of 7.9 mg/kg of compound in mice; type: functional; details: route oral
Mus musculus [14] = assay: Maximum rate of body weight loss after peroral administration of 26.7 mg/kg of compound in mice; type: functional; details: route oral
Mus musculus [15] = assay: Number of mice died at 11.9 mg/kg of peroral dose, among the total 6 mice tested; type: functional; details: route oral
B16 [16] = assay: Antitumor activity of 11.9 mg/kg of perorally administered compound against B16 melanoma BL6 cells implanted into mice, value reported is percent compared to control; type: functional, Mus musculus; details: route oral
Mus musculus [17] = assay: Maximum rate of body weight loss after intravenous administration of 7.9 mg/kg of compound in mice; type: functional
Mus musculus [18] = assay: Number of mice died at 26.7 mg/kg of intravenous dose of compound among the total 6 mice tested; type: functional
PC-6 [19] = assay: Concentration required to inhibit human PC-6 cell line growth by 50% at 72 hr continuous exposure; type: functional; details: PC-6, 72 h
Mus musculus [20] = assay: Antitumor activity of 7.9 mg/kg of intravenously administered compound against B16 melanoma BL6 cells implanted into mice, value reported is percent compared to control; type: functional; details: route intravenous
Mus musculus [21] = assay: Number of mice died at 17.8 mg/kg of intravenous dose among the total 6 mice tested; type: functional
Mus musculus [22] = assay: Maximum rate of body weight loss after intravenous administration of 11.9 mg/kg of compound in mice; <0 indicates no weight loss; type: functional
Mus musculus [23] = assay: Maximum rate of body weight loss after peroral administration of 17.8 mg/kg of compound in mice; type: functional; details: route oral
Mus musculus [24] = assay: Effective dose of intravenously administered compound against B16 melanoma BL6 cells implanted into mice; range is 11.9-17.8; type: functional; details: B16, iv
PC-6 [25] = assay: Concentration required to inhibit human PC-6/VCR29-9 cell line growth by 50% at 72 hr exposure; type: functional; details: PC-6, 72 h
Mus musculus [26] = assay: Number of mice died at 7.9 mg/kg of peroral dose of compound among the total 6 mice tested; type: functional; details: route oral
B16 [27] = assay: Antitumor activity of 17.8 mg/kg of perorally administered compound against B16 melanoma BL6 cells implanted into mice, value reported is percent compared to control; type: functional, Mus musculus; details: route oral

## CC(=O)O[C@@]12CO[C@@H]1CC[C@@]1(C)[C@@H]3O[C@H](CN4CCOCC4)O[C@@H]3C3=C(C)[C@@H](OC(=O)[C@H](O)[C@@H](NC(=O)OC(C)(C)C)c4cccc(F)n4)C[C@@](O)([C@@H](OCc4ccccc4)[C@@H]12)C3(C)C
PC-6 [1]
  GI50: 13.7 ng/mL (≈ 15.1 nM)
P388
  GI50: 0.2 ng/mL (≈ 0.22 nM)
Mus musculus [2]
  ED50: 17.8 mg/kg
Mus musculus [3]
  Mortality: 0
Mus musculus [4]
  Mortality: 1
Mus musculus [5]
  Mortality: 0
Mus musculus [6]
  BWLmax: <0%
PC-12
  GI50: 0.14 ng/mL (≈ 0.154 nM)
Mus musculus [7]
  IR: 94.7%
Mus musculus [8]
  BWLmax: 11.9%
B16 [9]
  IR: 85.7%
Mus musculus [10]
  Mortality: 0
Mus musculus [11]
  IR: 97.4%
Mus musculus [12]
  IR: -16.3%
Mus musculus [13]
  BWLmax: 0.8%
Mus musculus [14]
  BWLmax: 16.6%
Mus musculus [15]
  Mortality: 0
B16 [16]
  IR: 65.9%
Mus musculus [17]
  BWLmax: 0.3%
Mus musculus [18]
  Mortality: 6
PC-6 [19]
  GI50: 0.29 ng/mL (≈ 0.319 nM)
Mus musculus [20]
  IR: 28.6%
Mus musculus [21]
  Mortality: 0
Mus musculus [22]
  BWLmax: <0%
Mus musculus [23]
  BWLmax: 2.2%
Mus musculus [24]
  ED50: 17.8 mg/kg
PC-6 [25]
  GI50: 0.96 ng/mL (≈ 1.05 nM)
Mus musculus [26]
  Mortality: 0
B16 [27]
  IR: 88.5%
